Data set [1] in a line: In vivo pharmacokinetic experiment in rats, intragastric administration. Particulars: SD rats, 5 mg/kg. The method, then:
The drug concentrations in the plasma of the test animals (rats) at different time points after intragastric administration of the compound of the present disclosure were determined by an LC/MS/MS method. The pharmacokinetic behavior in rats of the compound of the present disclosure was studied and its pharmacokinetic profile was evaluated.
Male, healthy SD rats of SPF grade, 6-8 weeks old, 3 rats in each group.
Intragastric administration: a certain amount of compound was weighed and prepared into a 1 mg/mL white suspension by adding 0.5% by volume of hydroxypropyl methylcellulose, 0.1% by volume of tween 80 and 99.4% by volume of water.
SD rats were administered intragastrically with compound 4 or BLU-5937 at a dose of 5 mg/kg after fasting overnight.
Rats were administered intragastrically with the compound of the present disclosure. 0.2 mL of blood was collected from the jugular vein at 0.25 h, 0.5 h, 1 h, 2 h, 4 h, 8 h and 24 h after the administration, placed in a tube containing EDTA-K2, separated by centrifugation at 4° C. at 4000 rpm for 5 min to obtain plasma, which was stored at −75° C.
Determination of the content of the test compounds at different concentrations in the plasma of rats after intragastric administration: 50 μL of rat plasma at each time point after the administration was taken, 200 μL of a solution of internal standard dexamethasone (50 ng/mL) in acetonitrile was added thereto, and the mixture was vortexed for 30 s to be mixed well, centrifuged at 4° C. at 4700 rpm for 15 min. The supernatant of the plasma sample was subjected to 3-fold dilution with water, and 2.0 μL of the dilution was taken for LC/MS/MS analysis.

Data set [2] can be described thus: Caco-2 permeability assay. It is filed as in vitro ADME. The following applies: human. On the procedure: The apparent permeability coefficient (Papp) of the analytical drug was determined by liquid chromatography-tandem mass spectrometry (LC/MS/MS) through a Caco-2 cell model.
The transfer rate of drug from the apical end to the basal end was determined. 108 μL of HBSS (25 mM HEPES, pH 7.4) containing 10 μM test compound was added to the apical end of the upper chamber of Transwell (purchased from Corning) containing Caco-2 cells (purchased from ATCC) at a density of 6.86×10^5 cells/cm^2, and meanwhile, 8 μL of the sample was added, as an initial dosing-end sample (A-B), to a new 96-well plate to which 72 μL of HBSS (25 mM HEPES, pH 7.4) and 240 μL of acetonitrile (containing 100 nM alprazolam, 200 nM caffeine and 100 nM tolbutamide) had been added, and the plate was vortexed at 1000 rpm for 10 min. 300 μL of HBSS (25 mM HEPES, pH 7.4) was added to the basal end.
The transfer rate of drug from the basal end to the apical end was determined. 308 μL of HBSS (25 mM HEPES, pH 7.4) containing 10 μM test compound was added to wells of the basal end of the plate, and meanwhile, 8 μL of the sample was added, as an initial dosing-end sample (B-A), to a new 96-well plate to which 72 μL of HBSS (25 mM HEPES, pH 7.4) and 240 μL of acetonitrile (containing 100 nM alprazolam, 200 nM caffeine and 100 nM tolbutamide) had been added. The plate was vortexed at 1000 rpm for 10 min, and 100 μL of HBSS (25 mM HEPES, pH 7.4) was added to the apical end.
The transfer rate from the apical end to the basal end and the transfer rate from the basal end to the apical end need to be determined simultaneously.
At the end of the transfer cycle, 8 μL of the sample was taken from the dosing end (apical end of A-B flow and basal end of B-A flow) and added to 72 μL of HBSS (25 mM HEPES, pH 7.4) and 240 μL of acetonitrile (containing 100 nM alprazolam, 200 nM caffeine and 100 nM tolbutamide), and the mixture was added to a new 96-well plate. 80 μL of the liquid was taken directly from each of the basal end of the A-B flow and the apical end of the B-A flow, and added together with 240 μL of acetonitrile (containing 100 nM alprazolam, 200 nM caffeine and 100 nM tolbutamide) to a new 96-well plate. The plates were vortexed at 1000 rpm for 10 min. The samples were centrifuged at 4000 rpm for 30 min. 100 μL of the supernatant was transferred to a new 96-well plate. All samples were analyzed by LC-MS/MS with 100 μL of pure water.
Data were calculated using Microsoft Excel and peak areas were calculated from the chromatograms. The apparent permeability coefficient (Papp) is in cm/s and is calculated using the following formula: […]
Papp is apparent permeability (cm/s×10^−6);
The outflow ratio can be determined by the following equation: […]

On to `CC(=O)N1CCO[C@@H](Cn2c(-c3c(F)cc(N4CCCC4=O)cc3Cl)nc3cc(C)ccc32)C1` [Compound 4, (S)-1-(4-(1-((4-acetylmorpholin-2-yl)methyl)-5-methyl-1H-benzo[d]imidazol-2-yl)-3-chloro-5-fluorophenyl)pyrrolidin-2-one], for which the “V” value in data set [1] is reported as 2.05 L/kg. Moreover, in data set [1] (male, rat, plasma, po), the Tmax was found to be 25.2 min and the half-life was 57.6 min. In data set [1] (male, rat, po, plasma), this compound yielded an AUC(0-t) of 408 ng·h/mL and a Cmax of 356 ng/mL. The Papp A→B at 10 μM in data set [2] (Caco-2, 10 μM test compound, apical to basal, pH 7.4) turned out to be 8.1 ×10⁻⁶ cm/s. The efflux ratio at 10 μM in data set [2] (Caco-2, Papp (B-A)/Papp (A-B), read-out: Outflow ratio) was 3.8.
